Laboratory results reported in patent US20230184746A1, “HIGH-SENSITIVITY DETECTION OF GPCR ACTIVITY AND USES THEREOF” (Firmenich Incorporated, priority 2020, published 2023).
“Also recorded” adds a separate entry of the source.

How the values were obtained:
Type in all cases: cell-based
[1] = biological target: T1, human sweet taste receptor (hT1R2/hT1R3) (Homo sapiens, UniProt Q7RTX0+Q8TE23, C757R/I191V/I486V/R317G); test: Bias plotting analysis: DMR assay with R2/R3 U2OS cells vs FLIPR-calcium mobilization assay with R2/R3 U2OS cells expressing Gα15; conditions: equimolar concentrations; data normalized to 1 mM sucralose; relative to other sweeteners
T1 construct: expressed in transfected cells
T1 sequence (Q8TE23 20-839 I191V/R317G/I486V): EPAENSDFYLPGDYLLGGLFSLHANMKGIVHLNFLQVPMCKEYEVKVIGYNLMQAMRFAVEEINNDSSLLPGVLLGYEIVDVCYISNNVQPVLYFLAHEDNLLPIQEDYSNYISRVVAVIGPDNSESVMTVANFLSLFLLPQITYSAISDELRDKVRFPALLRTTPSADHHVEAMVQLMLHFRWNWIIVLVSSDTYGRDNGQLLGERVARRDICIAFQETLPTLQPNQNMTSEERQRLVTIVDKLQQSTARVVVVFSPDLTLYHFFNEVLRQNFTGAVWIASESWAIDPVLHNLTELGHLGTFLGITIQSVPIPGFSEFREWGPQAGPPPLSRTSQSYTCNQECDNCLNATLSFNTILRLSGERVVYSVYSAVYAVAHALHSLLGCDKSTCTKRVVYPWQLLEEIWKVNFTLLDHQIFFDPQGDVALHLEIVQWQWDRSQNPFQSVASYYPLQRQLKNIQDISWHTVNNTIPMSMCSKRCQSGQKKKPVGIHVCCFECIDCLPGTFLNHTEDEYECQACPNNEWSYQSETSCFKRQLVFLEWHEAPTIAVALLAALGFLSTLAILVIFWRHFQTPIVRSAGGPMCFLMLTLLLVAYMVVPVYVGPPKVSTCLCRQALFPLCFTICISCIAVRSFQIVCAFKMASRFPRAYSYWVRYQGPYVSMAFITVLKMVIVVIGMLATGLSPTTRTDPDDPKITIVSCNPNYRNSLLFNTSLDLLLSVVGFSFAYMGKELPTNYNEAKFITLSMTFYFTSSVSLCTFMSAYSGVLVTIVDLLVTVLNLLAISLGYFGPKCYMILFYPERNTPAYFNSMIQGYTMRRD
T1 sequence (Q7RTX0 21-852 C757R): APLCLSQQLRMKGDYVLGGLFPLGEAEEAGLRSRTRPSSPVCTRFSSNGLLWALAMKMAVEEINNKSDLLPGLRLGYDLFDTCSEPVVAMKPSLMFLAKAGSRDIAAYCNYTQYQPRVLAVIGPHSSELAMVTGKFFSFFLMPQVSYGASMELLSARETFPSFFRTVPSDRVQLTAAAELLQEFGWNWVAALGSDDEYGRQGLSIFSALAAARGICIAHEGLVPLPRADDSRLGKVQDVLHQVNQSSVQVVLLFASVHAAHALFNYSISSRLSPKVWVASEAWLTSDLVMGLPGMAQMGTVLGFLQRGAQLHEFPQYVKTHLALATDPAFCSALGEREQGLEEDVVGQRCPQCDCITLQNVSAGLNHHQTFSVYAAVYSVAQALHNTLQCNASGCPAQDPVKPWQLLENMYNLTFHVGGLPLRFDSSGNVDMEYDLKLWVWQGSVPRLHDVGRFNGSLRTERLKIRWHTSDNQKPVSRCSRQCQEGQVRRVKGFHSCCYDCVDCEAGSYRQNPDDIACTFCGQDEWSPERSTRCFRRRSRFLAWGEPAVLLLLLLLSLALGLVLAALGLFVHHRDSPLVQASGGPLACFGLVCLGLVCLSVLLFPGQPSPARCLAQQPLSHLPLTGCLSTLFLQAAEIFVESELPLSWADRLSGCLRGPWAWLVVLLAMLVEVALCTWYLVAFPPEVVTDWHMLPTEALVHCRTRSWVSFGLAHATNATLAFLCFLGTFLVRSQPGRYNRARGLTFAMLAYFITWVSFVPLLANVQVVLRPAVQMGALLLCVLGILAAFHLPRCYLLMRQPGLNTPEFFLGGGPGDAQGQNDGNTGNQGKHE
Description: (§1) Untransfected U2OS cells were cultured at 37° C. and 5% CO2 in McCoy's 5A medium (modified, GIBCO#16600) supplemented with 10% fetal bovine serum and penicillin/streptomycin. Plasmids encoding hT1R2 in pEAK10-puromycin and hT1R3 in pcDNA3.1-zeocin were linearized and transfected into U2OS cells followed by dilution and double selection in growth medium plus 0.5 μg/m1puromycin and 100 μg/mlzeocin. Individual colonies were expanded and transiently transfected with a Gα6gust25 expression construct to identify functional clones using sucralose as the agonist in a Ca2+ imaging assay. […] The lidded Epic® 384 microplate and polypropylene compound plate (Corning) were loaded into the carousel of the Epic® reader, the target plate was washed with DMSO matched D-PBS using the Corning Epic® Liquid Handling Accessory (LHA) and equilibrated in 25 μL of DMSO matched D-PBS for 90 minutes. After recording the baseline activity for 5 to 8 minutes, 25 μL of 2× concentrated solution of sweetener, agonist or a mixture of agonist and modulator, diluted in D-PBS, was added using the LHA and the DMR responses which measures a shift in the resonance wavelength, were monitored for an additional 30 minutes. […]
(§2) In FIG. 2A known sweeteners and new agonists were evaluated in the DMR assay with R2/R3 U2OS cells using a dose-response analysis. […]

[2] = biological target: T1, human sweet taste receptor (hT1R2/hT1R3); test: DMR assay (Epic reader) with R2/R3 U2OS cells; conditions: increasing concentrations, no overexpressed G protein
Description: as §1, §2

parental U2OS cells = test: DMR assay (Epic reader) with parental U2OS cells; conditions: parental (untransfected) U2OS cells, increasing concentrations
Description: as §1, with “assay. […] (R2/R3 U2OS cells) were seeded on Epic®384 microplates (Corning) at a density of 16,000 cells/well in 40 pt of assay media using a multidrop (Thermo Scientific).” for “assay.”

DMR signal (shift in resonance wavelength) [2]	Compound	Bias between FLIPR assay and DMR (EPIC) assay [1]	DMR signal (shift in resonance wavelength) (parental U2OS cells)
–	CCCOc1ccc([N+](=O)[O-])cc1N [P-4000]	more active in the FLIPR assay; also recorded: clear bias for the FLIPR assay	–
positive DMR signal	OC[C@H]1O[C@H](O[C@]2(CCl)O[C@H](CCl)[C@@H](O)[C@@H]2O)[C@H](O)[C@@H](O)[C@H]1Cl [sucralose]	–	does not cause a comparable positive DMR signal
–	COC(=O)[C@H](Cc1ccccc1)NC(=O)[C@H](CC(=O)O)NCCC(C)(C)C [Neotame]	more active in the FLIPR assay; also recorded: clear bias for the FLIPR assay	–
